# Experimental data from patent US5021423A, “Mitomycin derivatives and intermediates therefor” (Kyowa Hakko Kogyo Kabushiki Kaisha, priority 1988, dated 1991).
# Columns and labels:
# [1] = test system: Streptococcus faecium: Enterococcus faecium ATTC 10541; experiment: Anti-bacterial activity, agar dilution method at pH 7.0 (SF); type: cell-based; settings: pH 7, read-out: minimum growth inhibitory concentration, SF
# From the text: (§1) In this table, the microorganisms are abbreviated as follows:
# SF: Streptococcus faecium: Enterococcus faecium
# [2] = test system: Staphylococcus aureus ATCC 6538P; experiment: Anti-bacterial activity, agar dilution method at pH 7.0 (SA); type: cell-based; settings: ATCC6538P, read-out: minimum growth inhibitory concentration, SA
# From the text: as §1
# SA: Staphylococcus aureus ATCC 6538P
# [3] = test system: Proteus vulgaris ATCC 6897; experiment: Anti-bacterial activity, agar dilution method at pH 7.0 (PV); type: cell-based; settings: ATCC6897, read-out: minimum growth inhibitory concentration, PV
# From the text: as §1
# PV: Proteus vulgaris ATCC 6897
# [4] = test system: HeLa S3 cells; experiment: Inhibition test against the growth of HeLa S3 cells; type: cell-based; settings: Homo sapiens, 72 hours, neutral red, read-out: IC50 (growth inhibition by 50%)
# Method: Inhibition test against the growth of HeLa S3 cells
# Each 0.1 ml of MEM medium containing 10% foetal calf serum and 2 mM glutamine, which contained 3×10^4 HeLa S3 cells per ml, was put into each well of a 96 well microtitre plate. Without any pre-treatment, the cells were cultured overnight at a temperature of 37° C. in a CO2 incubator.
# On each occasion, 0.05 ml of a test sample which had been suitably diluted was added to the well. After treating with the test compound for 72 hours, the supernatant was removed. After washing once with a PBS (-), a fresh medium (0.1 ml) was added to each well, followed by incubating at a temperature of 37° C. for 2 hours in the incubator.
# After removal of the supernatant, 0.1 ml of a medium containing neutral red (0.02%) was added to each well. The cells were dyed by incubating at a temperature of 37° C. for one hour in the incubator. After removal of the supernatant, followed by washing once with a physiological solution of sodium chloride, the dyestuff was removed from each sample by extraction using a mixture of 0.001N hydrochloric acid and 30% ethanol. A microplate reader was used to measure the absorption at 550 nm. By comparing the absorption of untreated cells with the absorption of the cells treated with the test compound having a pre-determined concentration, a concentration of the test compound capable of inhibiting the growth of the cells by 50% was calculated and designated as IC50.
# [5] = test system: Klebsiella pneumoniae ATCC 10031; experiment: Anti-bacterial activity, agar dilution method at pH 7.0 (KP); type: cell-based; settings: ATCC10031, read-out: minimum growth inhibitory concentration, KP
# From the text: as §1
# KP: Klebsiella pneumoniae ATCC 10031
# [6] = Acute toxicity; settings: mouse, in vivo; ddy mice, single intravenous administration, observed for 14 days, Behrens Korber's method
# Method: Each animal of the test group consisting of 5 ddy mice was once administered intravenously with a test compound. […] The LD50 was determined by the Behrens Korber's method.
# [7] = test system: Sarcoma 180 solid tumour; experiment: Effect against Sarcoma 180 solid tumour; type: in vivo, mice of ddy strain; settings: Mus musculus, Sarcoma-180, iv, 168 h; male ddy mice, tail vein injection 24 hours after implantation; tumour volume 7 days after implantation; read-out: ED50 (dose reducing the volume of Sarcoma 180 solid tumours by 50%)
# Method: (1) Effect aginast Sarcoma 180 solid tumour:
# 5×10^6 cells of Sarcoma 180 solid tumour cells were abdominally implanted into male mice of ddy strain. 7 days after this, ascites cells were sampled. The ascites cells were washed once with a sterilized physiological solution of sodium chloride and were used to prepare a cell suspension containing 5×10^7 cells per ml. 0.1 ml of the cell suspension was subcutaneously implanted into the right armpit of a male mouse (ddy strain; body weight 20±2 g). 24 hours after the implantation of the tumour cells, the test compound dissolved in a physiological solution of sodium chloride containing Tween 80, was injected into the tail vein of each mouse of a group consisting of 5 animals at a dose of 0.1-0.2 ml. The anti-tumour activity of the test sample was determined as follows:
# 7 days after the implantation, the major axis (a) and the minor axis (b) of the tumour were measured to calculate a value of "a×b^2 /2" which corresponds to the volume of the tumour. The anti-tumour activity was expressed by T/C viz. the ratio of the volume of the tumours (T) of the group of animals administered with the test compound to the corresponding volume of tumours (C) of the untreated animals.
# (2) Determination of ED50 :
# The term ED50 denotes the administered amount needed for reducing the volume of Sarcoma 180 solid tumours in the animals by 50% on the basis of the corresponding volume of Sarcoma 180 solid tumours in the untreated animals. On graph paper, the value T/C was indicated by an arithmetic scale on the longitudinal axis and the administered amount of test compound was indicated by a logarithmic scale on the lateral axis. A straight line indicating the relationship between the dose and T/C was determined by the least squares method from which a dose corresponding to T/C of 0.5 was obtained.
SMILES,MIC [1],MIC [2],MIC [3],IC50 [4],MIC [5],LD50 at 336 h [6],ED50 [7]
CO[C@@]12[C@H](COC(N)=O)C3=C(C(OC(C)=O)=C(C)C4(OCCO4)C3=O)N1C[C@@H]1N[C@@H]12 [Compound 2],1.3 µg/mL,0.63 µg/mL,1.3 µg/mL,0.007 µg/mL,0.16 µg/mL,,
CC(=O)OC1=C(C)C2(OCCO2)C(=O)C2=C1N1C[C@H]3[C@H](N3C)[C@]1(O)[C@H]2COC(N)=O (some centres unmarked) [Compound 3],50 µg/mL,13 µg/mL,13 µg/mL,,6.3 µg/mL,11.3 mg/kg,9.9 mg/kg
CO[C@@]12[C@H](COC(N)=O)C3=C(C(OC(=O)c4ccccc4)=C(C)C4(OCCO4)C3=O)N1C[C@@H]1N[C@@H]12 [Compound 5],1.3 µg/mL,0.31 µg/mL,0.63 µg/mL,0.013 µg/mL,1.3 µg/mL,,
CCCCCCCCCCCC(=O)OC1=C(C)C2(OCCO2)C(=O)C2=C1N1C[C@@H]3N[C@@H]3[C@]1(OC)[C@@H]2COC(N)=O [Compound 6],2.5 µg/mL,0.63 µg/mL,2.5 µg/mL,0.0019 µg/mL,5 µg/mL,3 mg/kg,1.2 mg/kg
COC1=C(C)C2(OCCO2)C(=O)C2=C1N1C[C@@H]3N[C@@H]3[C@]1(OC)[C@@H]2COC(N)=O [Compound 7],10 µg/mL,5 µg/mL,10 µg/mL,0.085 µg/mL,2.5 µg/mL,,
CCCCC/C=C\C/C=C\CCCCCCCC(=O)OC1=C(C)C2(OCCO2)C(=O)C2=C1N1C[C@@H]3N[C@@H]3[C@]1(OC)[C@@H]2COC(N)=O [Compound 10],,,,0.0026 µg/mL,,4.2 mg/kg,1.9 mg/kg
CCCCCCCC(=O)OC1=C(C)C2(OCCO2)C(=O)C2=C1N1C[C@@H]3N[C@@H]3[C@]1(OC)[C@@H]2COC(N)=O [Compound 11],,,,0.01 µg/mL,,3.1 mg/kg,0.77 mg/kg
CO[C@@]12[C@H](COC(N)=O)C3=C(C(OC(=O)C(C)(C)C)=C(C)C4(OCCO4)C3=O)N1C[C@@H]1N[C@@H]12 [Compound 12],,,,0.53 µg/mL,,,
